Data published in publication PMC11322497 (Frontiers in Pharmacology, 2024).
Read-outs that look alike come from different tables or passages of the source.

Legend:
[1] = target: T1, rabbit galectin-3 (Oryctolagus cuniculus, UniProt P47845); experiment: Galectins fluorescence polarization binding assay
T1 construct: made in house
Protocol: Briefly, FP was measured from above in 96-well microtiter plates (black polystyrene; Costar, Corning, NY) using a POLARStar® instrument (BMG Labtech, Ortenberg, Germany). The final sample volume in each well was 200 μL. For inhibition assays, 100 μL of galectin and probe at fixed concentration was mixed with 100 μL of inhibitor solution and FP was measured as described above. Control wells containing only fluorescent probe or fluorescein were included.
All dilutions and measurements were done in PBS with plates incubated at room temperature for 1 h.

[2] = test system: high fat diet (HFD) rabbit model of metabolic-associated steatohepatitis (MASH); experiment: HFD rabbit study, prolonged 4-week treatment: protein expression in liver homogenates; format: in vivo, New Zealand White rabbits; conditions: HFD rabbits, weeks 9–12, mean±SD, n=3
Protocol: After 1 week (W) of RD, the animals (n = 44) were randomly assigned to the following groups (Table 1B): • Control rabbits continued to receive a RD for 12 weeks and were treated with vehicle for 5 days a week (days 1–5, p.o.) during the last 4 weeks before culling (RD + 4W Veh group); • Rabbits received a HFD for 8 weeks and were culled (HFD 8W group); • Rabbits received a HFD for 12 weeks and were treated with vehicle for 5 days a week (days 1–5, p.o.) during the last 4 weeks before culling (HFD+4W Veh group); • Rabbits received a HFD for 12 weeks and were treated with GB1211 (0.3 mg/kg) for 5 days a week (days 1–5, p.o.) during the last 4 weeks before culling (HFD + 4W 0.3 mg group); • Rabbits received a HFD for 12 weeks and were treated with GB1211 (1.0 mg/kg) for 5 days a week (days 1–5, p.o.) during the last 4 weeks before culling (HFD + 4W 1.0 mg group); • Rabbits received a HFD for 12 weeks and were treated with GB1211 (5.0 mg/kg) for 5 days a week (days 1–5, p.o.) during the last 4 weeks before culling (HFD + 4W 5.0 mg group).
Quantitative analyses of collagen, IL6 and TNFα expression in liver biopsies were carried out using available commercial assays. Collagen content was evaluated in liver homogenates employing the Sircol S2000 assay (Biocolor, Carrickfergus, United Kingdom), in accordance with manufacturer’s protocols. Briefly, 30 mg liver biopsies were fragmented in the appropriate reagent and the supernatant was bound to a dye reagent containing Sirius Red, which would generate a colorimetric reaction quantified as absorbance using an internal collagen standard curve. IL6 and TNFα were quantified in liver homogenates using ELISA assay kits (both from Cloud-Clone Corp, Katy, TX). Briefly, 50 mg liver biopsies were homogenized in proprietary lysis buffer and the supernatants were analyzed by sandwich immunoassays, following the producer’s instructions.

[3] = test system: high fat diet (HFD) rabbit model of metabolic-associated steatohepatitis (MASH); experiment: HFD rabbit study, acute 5-day treatment at week 12: clinical and biochemical data, tolerability; format: in vivo; conditions: for ALT / AST / Glycaemia / Liver Weight / MAP / OGTT (iAUC) / Plasma Cholesterol / Plasma Triglycerides: 30 mg/kg p.o. q.d. 5 days, mean ± SD, n = 3
Protocol: A total number of 64 male New Zealand White rabbits (Charles River, Calco, Lecco, Italy), weighing about 3 kg, were individually caged under standard conditions in a temperature- and humidity-controlled room on a 12 h light/dark cycle. Water and food were unrestricted throughout the study. Experimental procedures were conducted using the facilities of the Department of Biomedical Experimental and Clinical Sciences “Mario Serio” and Department of Experimental and Clinical Medicine, and those of CE.S.A.L. (Centro Stabulazione degli Animali da Laboratorio), and NEUROFARBA Department, University of Florence, Italy.
The dose employed was established based on pilot pharmacokinetics studies in rabbits performed historically in naïve rabbits (data not shown). This first part of the study allowed the determination of the therapeutic benefits of selvigaltin following acute treatment, thus validating the model for further investigation of this mechanism in a chronic treatment protocol.
After 1 week of standard diet, animals (n = 12) were randomly assigned to the following groups (Table 1A): • Control rabbits continued to receive a regular diet (RD) for 12 weeks and were treated for 5 days (days 1–5, p.o.), during the last week before culling, with either vehicle; RD+1W Veh group] or GB1211 (30 mg/kg; RD + 1W 30 mg group); • Rabbits received a high fat diet (HFD) for 12 weeks (RD implemented with 0.5% cholesterol and 2.5% vegetable fat) and were treated for 5 days (days 1–5, p.o.), during the last week before culling, with either vehicle (HFD + 1W Veh group) or GB1211 (30 mg/kg; HFD + 1W 30 mg group).
The oral glucose tolerance test (OGTT) was performed in accordance with the published method ([Filippi et al., 2009]). Briefly, after an overnight fast, a 50% glucose solution was orally administered to the animals at a dose of 1.5 g/kg. Blood samples were collected before and 15, 30, and 120 min after glucose loading. The incremental area under the curve (iAUC) was calculated by using GraphPad Prism (GraphPad Software, San Diego, CA). Blood samples for analyses were obtained from the marginal ear vein at week 8 or 12, in all groups. All blood samples were collected in standard conditions, before 10 a.m. after an overnight fasting. The blood was immediately centrifuged at 2,000 g for 20 min at 4°C and collected plasma/serum stored at −80°C until assayed. Plasma glucose, total cholesterol, triglycerides, transaminases (AST and ALT), and gamma-glutamyl transferase levels were measured using an automated system (Cobas 8000, Roche Diagnostics International AG, Rotkreuz, Switzerland). Serum alkaline phosphatase, albumin and total bilirubin levels were measured at IDEXX Laboratories (Kornwestheim, Germany), using an automated system (AU480, Beckman-Coulter, Brea, CA) with kinetic and photometric colour tests as per the following methods: alkaline phosphatase - alkaline buffer solution [2-amino-2-methylpropanol (AMP) in conjunction with p-nitrophenyl phosphate (pNPP)], according to the recommendation of the International Federation for Clinical Chemistry; albumin - the reaction of bromocresol green with albumin produces a colour complex, the absorption of which is measured dichromatically ([Doumas et al., 1971]); total bilirubin - a stabilized diazonium salt, 3,5-dichlorophenyldiazonium tetrafluoroborate (DPD), reacts with bilirubin to formazobilirubin, which absorbs at 570 nm ([Tolman and Rej, 1999]).
Mean arterial blood pressure (MAP) was measured by using a polyethylene catheter inserted into a femoral artery at week 8 or 12, after ketamine (10 mg/kg i.v.) and sodium thiopental (50 mg/kg i.v.) sedation.

T1 sequence (P47845 whole entry): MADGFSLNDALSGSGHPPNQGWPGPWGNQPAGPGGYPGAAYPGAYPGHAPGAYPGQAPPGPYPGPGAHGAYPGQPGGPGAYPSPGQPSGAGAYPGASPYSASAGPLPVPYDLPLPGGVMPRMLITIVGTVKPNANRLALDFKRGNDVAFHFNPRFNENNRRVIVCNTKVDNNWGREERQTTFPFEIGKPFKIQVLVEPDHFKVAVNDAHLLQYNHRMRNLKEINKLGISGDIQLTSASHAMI

**Q.** What does the source list for `OC[C@H]1O[C@H](Sc2cncc(Br)c2)[C@H](O)[C@@H](n2cc(-c3cc(F)c(F)c(F)c3)nn2)[C@H]1O` [selvigaltin]?
**A.** Kd ([1]; equivalent to KD of 12 nM, read-out: rabbit galectin-3 KD, equivalent concentration (converted)): 12 nM; Kd ([1]; fluorescence polarization, mean ± SD, n = 3, read-out: KD rabbit galectin-3): 12 nM; Collagen protein in liver homogenate ([2]; 0.3 mg/kg p.o.): 57.63 ± 2.73 µg/mg Liver; IL6 protein in liver homogenate ([2]; 0.3 mg/kg p.o.): 76.12 ± 8.47 pg/g Liver; TNFα protein in liver homogenate ([2]; 0.3 mg/kg p.o.): 1.61 ± 0.54 pg/mg Liver; Collagen protein in liver homogenate ([2]; 1.0 mg/kg p.o.): 45.25 ± 3.42 µg/mg Liver; IL6 protein in liver homogenate ([2]; 1.0 mg/kg p.o.): 63.53 ± 20.39 pg/g Liver; TNFα protein in liver homogenate ([2]; 1.0 mg/kg p.o.): 1.24 ± 0.58 pg/mg Liver; Collagen protein in liver homogenate ([2]; 5.0 mg/kg p.o.): 50.86 ± 5.22 µg/mg Liver; IL6 protein in liver homogenate ([2]; 5.0 mg/kg p.o.): 64.27 ± 18.36 pg/g Liver; TNFα protein in liver homogenate ([2]; 5.0 mg/kg p.o.): 1.33 ± 0.68 pg/mg Liver; tolerability ([3]; 30 mg/kg/day p.o., 5 days): well tolerated; ALT ([3]; HFD rabbits): 97.33 ± 54.99 U/L; AST ([3]; HFD rabbits): 231.67 ± 22.30 U/L; Glycaemia ([3]; HFD rabbits): 1.60 ± 0.14 gr/L; Liver Weight ([3]; HFD rabbits): 3.94 ± 0.55 % of BW; MAP ([3]; HFD rabbits): 130.83 ± 20.36 mmHg; OGTT (iAUC) ([3]; HFD rabbits): 220.33 ± 8.63; Plasma Cholesterol ([3]; HFD rabbits): 2064.00 ± 268.00 mg/dL; Plasma Triglycerides ([3]; HFD rabbits): 88.00 ± 42.14 mg/dL; ALT ([3]; RD rabbits): 36.33 ± 25.11 U/L; AST ([3]; RD rabbits): 29.33 ± 5.86 U/L; Glycaemia ([3]; RD rabbits): 1.12 ± 0.17 gr/L; Liver Weight ([3]; RD rabbits): 2.40 ± 0.33 % of BW; MAP ([3]; RD rabbits): 88.75 ± 14.09 mmHg; OGTT (iAUC) ([3]; RD rabbits): 165.90 ± 11.12; Plasma Cholesterol ([3]; RD rabbits): 21.67 ± 3.51 mg/dL; Plasma Triglycerides ([3]; RD rabbits): 56.00 ± 21.28 mg/dL
